Measured values reported in patent US9492508B2, “Parathyroid hormone analogs and uses thereof” (The General Hospital Corporation, priority 2010, dated 2016).
“Also recorded” adds a separate entry of the source. Ends that are not written are not given here.

Legend:
human PTHR1 (RG) = molecular target: T1, human PTHR1 (RG) (Homo sapiens, UniProt Q03431); experiment: Competition binding, RG conformation of human PTHR1 (COS-7 membranes); conditions: mean of 3 experiments, read-out: Binding human PTHR1 IC50 (Log M) RG (converted)
T1 construct: expressed in transfected cells; host or cells: COS-7 cells (membranes)
T1 sequence (Q03431 27-593): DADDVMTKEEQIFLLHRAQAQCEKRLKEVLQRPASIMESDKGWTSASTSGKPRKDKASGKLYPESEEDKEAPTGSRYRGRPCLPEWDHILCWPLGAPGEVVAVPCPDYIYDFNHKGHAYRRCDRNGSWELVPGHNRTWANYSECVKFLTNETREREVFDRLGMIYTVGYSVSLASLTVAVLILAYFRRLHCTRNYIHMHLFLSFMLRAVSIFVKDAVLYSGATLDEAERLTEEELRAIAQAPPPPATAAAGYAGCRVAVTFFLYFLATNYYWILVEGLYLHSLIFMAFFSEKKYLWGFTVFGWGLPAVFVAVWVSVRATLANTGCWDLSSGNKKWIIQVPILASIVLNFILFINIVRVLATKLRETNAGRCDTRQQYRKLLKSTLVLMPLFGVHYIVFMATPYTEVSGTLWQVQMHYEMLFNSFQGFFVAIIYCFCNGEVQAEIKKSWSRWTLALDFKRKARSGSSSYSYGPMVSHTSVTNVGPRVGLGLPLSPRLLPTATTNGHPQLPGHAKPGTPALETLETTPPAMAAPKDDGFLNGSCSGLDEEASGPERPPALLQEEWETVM
Experimental: (§1) Briefly, the R^0 form of the receptor can be favored by addition of the non-hydrolyzable nucleotide analog GTPγS. The RG form can be favored, for example, by co-transfection of cells with a negative dominant Gαs subunit. […] Data are means of four experiments, each performed in duplicate. Curves were fit to the data using Graph-Pad Prism 4.0.
Here, competition binding assays for the R^0 and RG PTHR1 conformation were performed in membranes prepared from transfected COS-7 cells, as described by Dean et al., Mol Endocrinol 22:156-66, 2008. Data are means of three experiments, each performed in duplicate. Curves were fit to the data using Graph-Pad Prism 4.0.

MC3T3-E1 cells = experiment: cAMP RIA in intact MC3T3-E1 cells; assay type: cell-based, mouse; conditions: 30 min, room temperature, IBMX; for cAMP MC3T3-E1 cells EC50 (Log M): 6 experiments
Outline: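 Intact mouse pre-osteoblastic MC3T3-E1 cells were stimulated with polypeptide. cAMP in HCl lysates was measured by radioimmunoassay. Values are means of six duplicate experiments with fitted curves.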

rat PTHR1 (RG) = molecular target: T2, rat PTHR1 (RG) (Rattus norvegicus, UniProt P25961); experiment: Competition binding, RG conformation of rat PTHR1
T2 construct: expressed in transfected cells
T2 sequence (P25961 27-591): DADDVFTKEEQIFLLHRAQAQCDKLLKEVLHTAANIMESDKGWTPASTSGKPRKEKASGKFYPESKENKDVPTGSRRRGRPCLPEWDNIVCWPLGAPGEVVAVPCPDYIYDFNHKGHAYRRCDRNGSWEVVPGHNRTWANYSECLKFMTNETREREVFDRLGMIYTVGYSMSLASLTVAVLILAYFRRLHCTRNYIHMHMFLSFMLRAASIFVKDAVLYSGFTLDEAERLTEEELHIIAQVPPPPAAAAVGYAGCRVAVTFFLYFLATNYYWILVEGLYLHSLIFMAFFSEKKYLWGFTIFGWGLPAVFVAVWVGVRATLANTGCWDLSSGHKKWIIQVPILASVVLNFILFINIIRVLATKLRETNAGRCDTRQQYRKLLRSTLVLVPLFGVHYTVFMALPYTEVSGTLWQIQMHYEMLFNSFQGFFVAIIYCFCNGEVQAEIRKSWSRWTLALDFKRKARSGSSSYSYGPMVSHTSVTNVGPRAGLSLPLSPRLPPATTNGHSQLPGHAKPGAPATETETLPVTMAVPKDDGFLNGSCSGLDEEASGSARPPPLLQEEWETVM
Description: as §1

[1] = Plasma concentration in cynomolgus monkey after intravenous injection; assay type: in vivo; conditions: male, 1 nmol/kg intravenous
Experimental: FIG. 11B is a graph showing plasma concentration of SP-PTH (SEQ ID NO:11) in monkey following intravenous injection of 1 nmol/kg.
The effects of the SP-PTH (SEQ ID NO:11) and SP-PTH-AAK (SEQ ID NO:4) (“SP-AAK”) on serum and urinary calcium and phosphate levels were tested in cynomolgus monkeys. Briefly, three- or four-year-old, male cynomolgus monkeys (HAMRI Co., Ltd., Ibaraki, Japan) were measured for their body weight. Blood was collected into tubes. Monkeys received intravenous or subcutaneous administration of each polypeptide at a dose of 0.3 ml/kg. Polypeptide concentrations in stock solution were adjusted by dilution with 25 mmol/L phosphate-citrate buffer/100 mmol/L NaCl/0.05% Tween 80 (pH.5.0) (PC-buffer). All polypeptides were allowed to stand on ice immediately before administration. Polypeptides were administered to groups of three monkeys each respectively. At 1, 2, 4, and 8 hours after administration, blood was collected by saphenous vein to monitor the time course of calcium and phosphorus levels (FIG. 11A).

[2] = Repetitive daily dosing in TPTX rats (10 days); assay type: in vivo, rat
Experimental: FIGS. 20A-20D are graphs showing effects of once-daily SP-PTH on serum and urine Ca in TPTX rats. TPTX and sham-control rats were treated once daily, for 10 days, via sc. injection with either vehicle (Sham and TPTX) or SP-PTH (SEQ ID NO:11) (1, 2. 4, or 8 nmol/kg), or with 1,25(OH)2D (0.075 or 0.2 μg/kg. orn). After the last injection on day 10, the rats were placed in metabolic cages, and jugular vein blood was obtained at 8 (FIG. 20A) and 24 hrs (FIG. 20B); urine was collected for the intervals 0-8 (FIG. 20C) and 8-24 hrs (FIG. 20D); means±s.e.m: n=5; ′˜, P vs vehicle <005.
In therapeutic use in humans, one would administer doses sufficient to only normalize blood Ca. A key experiment is to determine if it is indeed feasible to normalize sCa following a repetitive dosing regimen. We thus performed the experiment of FIGS. 20A-2D, in which TPTX rats were treated daily for 10 days with SP-PTH at doses of 1, 2, 4 and 8 nmol/kg (s.c). For comparison, 1,25(OH)2-vitamin-D (calcitriol) at doses of 0.075 and 0.2 mcg/kg (oral) were used for the same time periods.

[3] = 4 nmol/kg s.c. once daily 10 days

Substance | IC50 (human PTHR1 (RG)) | EC50 (MC3T3-E1 cells) | cAMP MC3T3-E1 cells Emax (pmole/well) (MC3T3-E1 cells) | cAMP MC3T3-E1 cells EC50 (Log M) (MC3T3-E1 cells) | binding to RG form of rat PTHR1, comparison in words (rat PTHR1 (RG); FIG. 1B) | IC50 (rat PTHR1 (RG); RG conformation, read-out: Binding rat PTHR1 IC50 nM RG (converted)) | half-life [1] | sCa at 8 hours after the last injection [2, 3] | sCa at 24 hours after the last injection [2, 3] | urine calcium excretion ([2]; SP-PTH 4 nmol/kg s.c. once daily 10 days)
AVAEIQLMHQRAKWIQDARRRAFLHKLIAEIHTAEI-OH [SP-PTH-AAK, [Ala^1,3,12,18,22,Gln^10,Arg^11,Trp^14,Lys^26]PTH(1-14)/PTHrP(15-36)] | 0.224 nM | 0.0063 nM | 62.3 ± 13.6 pmole/well | −11.2 ± 0.2 Log M | strongest binding; also recorded: increased | 0.1 nM |  |  |  | 
AVAEIQLMHQRAKWIQDLRRRFFLHHLIAEIHTAEI-OH [SP-PTH, [Ala^1,3,12,Gln^10,Arg^11,Trp^14]PTH(1-14)/PTHrP(15-36)] |  | 0.044 nM | 60.6 ± 12.4 pmole/well | −10.4 ± 0.1 Log M |  |  | ~4 min | avoided hypercalcemia | maintained near-normal sCa | low at all time points
